System: TG, non-HDL-C, LDL-C, HDL-C, apo B, hsCRP
Assay: REDUCE-IT: fasting lipid, lipoprotein and inflammatory biomarkers over time
Assay type: in vivo, human
Details: Year 2; ITT
Experimental: Fasting Lipid Profile: The fasting lipid panel included: TG, TC, LDL-C, HDL-C, non-HDL-C, and VLDL-C. At all visits, LDL-C was calculated using the Friedewald equation. At Visit 1 and Visit 1.1 direct LDL-C were used if at the same visit TG >400 mg/dL (4.52 mmol/L). These LDL-C values were used for the evaluation of the LDL-C inclusion criterion (LDL-C qualifying measurements for randomization) and for the assessment of changes in the statin therapy when LDL-C was not at goal. […] In addition, irrespective of the TG levels, at Visit 2 (0 Months of Follow-up, baseline) and at Visit 4 (12 Months of Follow-up), LDL-C were measured by preparative ultracentrifugation. […] Hopkins LDL-C was calculated for each visit. […]
The fasting lipid panel was tested at Screening (Visit 1 or Visit 1.1), Randomization visit (Visit 2; Day 0), Visit 3 (Day 120; ˜4 Months) and all other follow-up visits including the last visit. For change from baseline to 1 year preparative ultracentrifugation measurements for LDL-C were analyzed, unless this value was missing. […] In addition, change from baseline to day 120 in LDL-C utilizing Friedewald's and Hopkins methods was analyzed, using the arithmetic mean of LDL-C obtained at Visit 2 (Day 0) and the preceding Visit 1 (or Visit 1.1). […] LDL-C according to Hopkins was calculated at each visit. […]

## CC/C=C\C/C=C\C/C=C\C/C=C\C/C=C\CCCC(=O)OCC [Icosapent Ethyl, eicosapentaenoic acid ethyl ester]
  Triglycerides median absolute change from baseline: 85 mg/dL

Reference: US11298333B1, “Methods of reducing the risk of cardiovascular events in a subject” (Amarin Pharmaceuticals Ireland Limited, priority 2018, dated 2022)
